Measurements taken from patent US20180318311A1, “TRICYCLIC 2-QUINOLINONES AS ANTIBACTERIALS” (priority 2017, published 2018).
Converted amounts (≈) assume the structure as drawn. Structures can show the parent of a compound that is named as a salt.

How the values were obtained:
Assay type in all cases: cell-based
[1] = system: S. aureus NB01006-AVR005, gyrA (S84L), grlA (580F) and grlB (E471K); test: microbe, parasite or virus in culture; conditions: Staphylococcus aureus, 20 h, read-out: Antibacterial activity (MIC) NB01006-AVR005
In short: (§1)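 CLSI broth microdilution in cation-adjusted Mueller-Hinton broth, inoculum about 5×10^5 CFU/mL from overnight MHA cultures. Two-fold compound dilutions in 1% final DMSO; plates incubated 20 h at 35° C in ambient air. MIC (μg/mL) was the lowest concentration preventing visible growth, checked by OD600 and visual inspection.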

[2] = system: S. pneumoniae ATCC 25922 (NB07001); test: MIC by broth microdilution, S. pneumoniae NB07001; conditions: Streptococcus pneumoniae, ATCC25922, 20 h, read-out: Antibacterial activity (MIC) NB07001
In short: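 CLSI broth microdilution in CAMHB, inoculum ~5×10^5 CFU/mL, two-fold compound dilutions at 1% final DMSO. Plates incubated 20 h at 35°C in ambient air; MIC (μg/mL) is the lowest concentration preventing visible growth, confirmed by OD600.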

[3] = system: E. faecalis ATCC 29212 (NB04001); test: MIC by broth microdilution, E. faecalis NB04001; conditions: Enterococcus faecalis, ATCC29212, CAMHB, 35° C., 20 hours, read-out: Antibacterial activity (MIC) NB04001
In short: as §1

[4] = system: P. aeruginosa NB52019, wild-type PAO1 strain; test: MIC by broth microdilution, P. aeruginosa NB52019; conditions: Pseudomonas aeruginosa, CAMHB, 35° C., 20 hours, read-out: Antibacterial activity (MIC) NB52019
In short: as §1

[5] = system: E. coli ATCC 25922 (NB27001); test: MIC by broth microdilution, E. coli NB27001; conditions: Escherichia coli, ATCC25922, CAMHB, 35° C., 20 hours, read-out: Antibacterial activity (MIC) NB27001
In short: as §1

[6] = system: S. aureus NB01080 fluoroquinolone-resistant clinical isolate; test: MIC by broth microdilution, S. aureus NB01080; conditions: Staphylococcus aureus, CAMHB, 35° C., 20 hours, read-out: Antibacterial activity (MIC) NB01080
In short: as §1

[7] = system: S. aureus ATCC 49951 (NB01006); test: MIC by broth microdilution, S. aureus NB01006; conditions: Staphylococcus aureus, ATCC49951, CAMHB, 35° C., 20 hours, read-out: Antibacterial activity (MIC) NB01006
In short: as §1

| Structure (SMILES) | MIC [1] [mg/L] | MIC [2] [mg/L] | MIC [3] [mg/L] | MIC [4] [mg/L] | MIC [5] [mg/L] | MIC [6] [mg/L] | MIC [7] [mg/L] |
| --- | --- | --- | --- | --- | --- | --- | --- |
| C[C@@H]1COc2c(N3CC[C@@H](C4(N)CC4)C3)c(F)cc3cc(C(=O)O)c(=O)n1c23 [Example 1.21, (R)-10-((R)-3-(1-aminocyclopropyl)pyrrolidin-1-yl)-9-fluoro-3-methyl-5-oxo-2,3-dihydro-5H-[1,4]oxazino[2,3,4-ij]quinoline-6-carboxylic acid] | > 32 | 1 to 32 (≈ 2.58 to 82.6 µM) | > 32 | > 32 | > 32 | > 32 | 1 to 32 (≈ 2.58 to 82.6 µM) |
| C[C@H]1COc2c(N3CCC(CNC4CC4)C3)c(F)cc3cc(C(=O)O)c(=O)n1c23 (mixture of isomers) [Example 1.11, (3S)-10-(3-((cyclopropylamino)methyl)pyrrolidin-1-yl)-9-fluoro-3-methyl-5-oxo-2,3-dihydro-5H-[1,4]oxazino[2,3,4-ij]quinoline-6-carboxylic acid] | > 32 | < 1 | 1 to 32 | > 32 | 1 to 32 | 1 to 32 | 1 to 32 |
| CNC1([C@@H]2CCN(c3c(F)cc4cc(C(=O)O)c(=O)n5c4c3OC[C@@H]5C)C2)CC1 [Example 1.12, (S)-9-fluoro-3-methyl-10-((R)-3-(1-(methylamino)cyclopropyl)pyrrolidin-1-yl)-5-oxo-2,3-dihydro-5H-[1,4]oxazino[2,3,4-ij]quinoline-6-carboxylic acid] | 1 to 32 (≈ 2.49 to 79.7 µM) | < 1 | 1 to 32 (≈ 2.49 to 79.7 µM) | > 32 | 1 to 32 (≈ 2.49 to 79.7 µM) | 1 to 32 (≈ 2.49 to 79.7 µM) | < 1 |
| C[C@H](N)[C@@H]1CCN(c2ccc3cc(C(=O)O)c(=O)n4c3c2OC[C@@H]4C)C1 [Example 12.4, (S)-10-((R)-3-((S)-1-aminoethyl)pyrrolidin-1-yl)-3-methyl-5-oxo-2,3-dihydro-5H-[1,4]oxazino[2,3,4-ij]quinoline-6-carboxylic acid] | 1 to 32 (≈ 2.8 to 89.5 µM) | < 1 | < 1 | 1 to 32 (≈ 2.8 to 89.5 µM) | 1 to 32 (≈ 2.8 to 89.5 µM) | 1 to 32 (≈ 2.8 to 89.5 µM) | < 1 |
| CO/N=C1\CN(c2c(F)cc3cc(C(=O)O)c(=O)n4c3c2OC[C@@H]4C)CC1CN (stereo partly drawn) [Example 1.40, (3S)-10-((Z)-3-(aminomethyl)-4-(methoxyimino)pyrrolidin-1-yl)-9-fluoro-3-methyl-5-oxo-2,3-dihydro-5H-[1,4]oxazino[2,3,4-ij]quinoline-6-carboxylic acid] | 1 to 32 (≈ 2.47 to 79.1 µM) | < 1 | 1 to 32 (≈ 2.47 to 79.1 µM) | > 32 | 1 to 32 (≈ 2.47 to 79.1 µM) | 1 to 32 (≈ 2.47 to 79.1 µM) | 1 to 32 (≈ 2.47 to 79.1 µM) |
| COc1cc2cc(C(=O)O)c(=O)n3c2c(c1N1CC[C@@H](C2(N)CC2)C1)OC[C@@H]3C [Example 16, (S)-10-((R)-3-(1-aminocyclopropyl)pyrrolidin-1-yl)-9-methoxy-3-methyl-5-oxo-2,3-dihydro-5H-[1,4]oxazino[2,3,4-ij]liquinoline-6-carboxylic acid formate salt] | > 32 | 1 to 32 | > 32 | > 32 | > 32 | > 32 | > 32 |
| C[C@H]1COc2c(N3CC4C(N)C4C3)c(F)c(F)c3cc(C(=O)O)c(=O)n1c23 (single isomer, unassigned) [Example 13.7] | 1 to 32 (≈ 2.65 to 84.8 µM) | < 1 | < 1 | 1 to 32 (≈ 2.65 to 84.8 µM) | < 1 | 1 to 32 (≈ 2.65 to 84.8 µM) | < 1 |
| C[C@H]1COc2c(N3CC(CN)C4(CCOCC4)C3)c(F)cc3cc(C(=O)O)c(=O)n1c23 (single isomer, unassigned) [Example 1.48] | 1 to 32 (≈ 2.32 to 74.2 µM) | < 1 | < 1 | > 32 | > 32 | 1 to 32 (≈ 2.32 to 74.2 µM) | < 1 |
| C[C@H]1COc2c(N3CCC(F)(CN)C3)ccc3cc(C(=O)O)c(=O)n1c23 (stereo partly drawn) [Example 12.5, (3S)-10-(3-(aminomethyl)-3-fluoropyrrolidin-1-yl)-3-methyl-5-oxo-2,3-dihydro-5H-[1,4]oxazino[2,3,4-ij]quinoline-6-carboxylic acid] | > 32 | 1 to 32 (≈ 2.77 to 88.6 µM) | 1 to 32 (≈ 2.77 to 88.6 µM) | > 32 | 1 to 32 (≈ 2.77 to 88.6 µM) | 1 to 32 (≈ 2.77 to 88.6 µM) | 1 to 32 (≈ 2.77 to 88.6 µM) |
| C[C@H]1COc2c(N3CCC(C)(CN)C3)c(F)cc3cc(C(=O)O)c(=O)n1c23 (stereo partly drawn) [Example 1.26, (3S)-10-(3-(aminomethyl)-3-methylpyrrolidin-1-yl)-9-fluoro-3-methyl-5-oxo-2,3-dihydro-5H-[1,4]oxazino[2,3,4-ij]quinoline-6-carboxylic acid] | > 32 | 1 to 32 (≈ 2.66 to 85.2 µM) | 1 to 32 (≈ 2.66 to 85.2 µM) | > 32 | 1 to 32 (≈ 2.66 to 85.2 µM) | 1 to 32 (≈ 2.66 to 85.2 µM) | 1 to 32 (≈ 2.66 to 85.2 µM) |
| C[C@H]1COc2c(N3CC[C@H](N)C3)c(F)cc3cc(C(=O)O)c(=O)n1c23 [Example 1.2, (S)-10-((S)-3-aminopyrrolidin-1-yl)-9-fluoro-3-methyl-5-oxo-2,3-dihydro-5H-[1,4]oxazino[2,3,4-ij]quinoline-6-carboxylic acid] | > 32 | 1 to 32 (≈ 2.88 to 92.1 µM) | 1 to 32 (≈ 2.88 to 92.1 µM) | 1 to 32 (≈ 2.88 to 92.1 µM) | 1 to 32 (≈ 2.88 to 92.1 µM) | > 32 | 1 to 32 (≈ 2.88 to 92.1 µM) |
| C[C@H]1COc2c(N3CCN4CC(F)(F)C[C@H]4C3)c(F)cc3cc(C(=O)O)c(=O)n1c23 [Example 1.72, (S)-10-((S)-7,7-difluorohexahydropyrrolo [1,2-a]pyrazin-2(1H)-yl)-9-fluoro-3-methyl-5-oxo-2,3-dihydro-5H-[1,4]oxazino[2,3,4-ij]quinoline-6-carboxylic acid] | > 32 | > 32 | > 32 | > 32 | > 32 | > 32 | 1 to 32 (≈ 2.36 to 75.6 µM) |
| C[C@H]1COc2c(N3CC[C@@H](C4(N)CCC4)C3)c(F)c(F)c3cc(C(=O)O)c(=O)n1c23 [Example 13.8, (S)-10-((R)-3-(1-aminocyclobutyl)pyrrolidin-1-yl)-8,9-difluoro-3-methyl-5-oxo-2,3-dihydro-5H-[1,4]oxazino[2,3,4-ij]quinoline-6-carboxylic acid] | < 1 | < 1 | < 1 | 1 to 32 (≈ 2.38 to 76.3 µM) | 1 to 32 (≈ 2.38 to 76.3 µM) | < 1 | < 1 |
| C[C@H]1COc2c(N3CC(N)C(CO)C3)c(F)cc3cc(C(=O)O)c(=O)n1c23 (single isomer, unassigned) [Example 1.77] | > 32 | 1 to 32 (≈ 2.65 to 84.8 µM) | > 32 | > 32 | > 32 | > 32 | 1 to 32 (≈ 2.65 to 84.8 µM) |
| C[C@H]1COc2c(N3CC[C@@H](C4(N)CC4)C3)c(F)cc3c(CN)cc(=O)n1c23 [Example 7.9, (S)-10-((R)-3-(1-aminocyclopropyl)pyrrolidin-1-yl)-7-(aminomethyl)-9-fluoro-3-methyl-2,3-dihydro-5H-[1,4]oxazino[2,3,4-ij]quinolin-5-one] | < 1 | < 1 | < 1 | 1 to 32 (≈ 2.68 to 85.9 µM) | < 1 | 1 to 32 (≈ 2.68 to 85.9 µM) | < 1 |
